This is an account of results in patent US11407738B2 (Achillion Pharmaceuticals, Inc., priority 2015, dated 2022).

Each structure is given as a SMILES string.

Human Factor D, sequence (P00746 26-253): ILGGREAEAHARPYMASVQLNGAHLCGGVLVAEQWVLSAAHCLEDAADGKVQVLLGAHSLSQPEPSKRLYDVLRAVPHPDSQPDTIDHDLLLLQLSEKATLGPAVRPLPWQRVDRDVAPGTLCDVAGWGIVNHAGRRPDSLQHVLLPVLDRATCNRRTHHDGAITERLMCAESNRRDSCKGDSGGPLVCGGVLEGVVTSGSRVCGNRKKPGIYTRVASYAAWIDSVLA

The target in the first assay is Human Factor D (Homo sapiens (Human), UniProt P00746). Description: Human Factor D assay. Type of assay: biochemical. The conditions noted are these: Table 3; Factor D inhibition, substrate Z-L-Lys-SBzl. How it is done:
Human Factor D (purified from human serum, Complement Technology, Inc.) at 80 nM final concentration is incubated with test compound at various concentrations for 5 min at room temperature in 50 mM Tris, 1M NaCl, pH 7.5. A synthetic substrate Z-L-Lys-SBzl and DTNB (Ellman's reagent) are added to final concentrations of 100 μM each. […] IC50 values are calculated by nonlinear regression of complement Factor D reaction rates as a function of test compound concentration.
In the case of `CC(=O)c1nn(CC(=O)N2C[C@H](F)C[C@H]2C(=O)N2CCn3c(nnc3C(F)(F)F)C2)c2ccc(-c3cnc(C)nc3)cc12` [Compound 524, 2-(3-acetyl-5-(2-methylpyrimidin-5-yl)-1H-indazol-1-yl)-1-((2S,4R)-4-fluoro-2-(3-(trifluoromethyl)-5,6,7,8-tetrahydro-[1,2,4]triazolo[4,3-a]pyrazine-7-carbonyl)pyrrolidin-1-yl)ethanone], the IC50 is above 10 µM.
In turn, `CC(=O)c1nn(CC(=O)N2C[C@H](F)C[C@H]2C(=O)Nc2cccc(-c3cc(S(N)(=O)=O)ccc3Cl)c2F)c2ccc(-c3cnc(C)nc3)cc12` [Compound 525, (2S,4R)-1-(2-(3-acetyl-5-(2-methylpyrimidin-5-yl)-1H-indazol-1-yl)acetyl)-N-(2′-chloro-2-fluoro-5′-sulfamoylbiphenyl-3-yl)-4-fluoropyrrolidine-2-carboxamide] displayed an IC50 below 1 µM.
On the same count and under the same terms, then `CC(=O)c1cn(CC(=O)N2C[C@H](F)C[C@H]2C(=O)Nc2cccc(-c3ccccc3Cl)c2F)c2ccc(-c3cnc(O[C@@H]4CO[C@H]5[C@@H]4OC[C@H]5O)nc3)cc12` [Compound 501, (2S,4R)-1-(2-(3-Acetyl-5-(2-((3R,3aR,6R,6aR)-6-hydroxyhexahydrofuro[3,2-b]furan-3-yloxy)pyrimidin-5-yl)-1H-indol-1-yl)acetyl)-N-(2′-chloro-2-fluorobiphenyl-3-yl)-4-fluoropyrrolidine-2-carboxamide], with below 1 µM.

The same assay, now with this note: Table 4; Factor D inhibition, substrate Z-L-Lys-SBzl.
The compound `CC(=O)c1nn(CC(=O)N2C[C@H](F)C[C@H]2CS(=O)(=O)c2cccc(Br)n2)c2ccc(-c3cnc(C)nc3)cc12` [Compound 603, 2-(3-Acetyl-5-(2-methylpyrimidin-5-yl)-1H-indazol-1-yl)-1-((2S,4R)-2-(((6-bromopyridin-2-yl)sulfonyl)methyl)-4-fluoropyrrolidin-1-yl)ethan-1-one] registered a half-maximal inhibitory concentration (IC50) above 10 µM.
The same measure, in the same setting: for `CC(=O)c1nn(CC(=O)N2C[C@H](F)C[C@H]2C(=O)Nc2cccc(-c3cc(F)ccc3S(C)(=O)=O)c2F)c2ccc(-c3cnc(C)nc3)cc12` [Compound 539, (2S,4R)-1-(2-(3-acetyl-5-(2-methylpyrimidin-5-yl)-1H-indazol-1-yl)acetyl)-N-(2,5′-difluoro-2′-(methylsulfonyl)-[1,1′-biphenyl]-3-yl)-4-fluoropyrrolidine-2-carboxamide] the value was below 1 µM; for `CCOP(=O)(OCC)OC[C@@]12C[C@@H]1N(C(=O)Cn1nc(C(C)=O)c3cc(-c4cnc(C)nc4)ccc31)[C@H](C(=O)Nc1cccc(Br)n1)C2` [Compound 581, ((1S,3S,5R)-2-(2-(3-Acetyl-5-(2-methylpyrimidin-5-yl)-1H-indazol-1-yl)acetyl)-3-(6-bromopyridin-2-ylcarbamoyl)-2-azabicyclo[3.1.0]hexan-5-yl)methyl Diethyl Phosphate], 1 to 10 µM.
The compound `CC(=O)c1nn(CC(=O)N2C[C@H](F)C[C@H]2c2nnc(-c3cccc(Cl)c3F)o2)c2ccc(-c3cnc(C)nc3)cc12` [Compound 574, 2-(3-Acetyl-5-(2-methylpyrimidin-5-yl)-1H-indazol-1-yl)-1-((2S,4R)-2-(5-(3-chloro-2-fluorophenyl)-1,3,4-oxadiazol-2-yl)-4-fluoropyrrolidin-1-yl)ethan-1-one] registered an IC50 of 1 to 10 µM.
`Cc1ncc(-c2ccc3c(c2)c(C(=N)N)nn3CC(=O)N2C[C@H](F)C[C@H]2C(=O)Nc2cccc(-c3ccccc3Cl)c2F)cn1` [Compound 542, (2S,4R)-1-(2-(3-Carbamimidoyl-5-(2-methylpyrimidin-5-yl)-1H-indazol-1-yl)acetyl)-N-(2′-chloro-2-fluoro-[1,1′-biphenyl]-3-yl)-4-fluoropyrrolidine-2-carboxamide]: the IC50 was below 1 µM.
Same read-out and setting: for `CC(=O)c1nn(CC(=O)N2CCC[C@@H](C(=O)NCc3cccc(Br)n3)C2)c2ccc(-c3cnc(C)nc3)cc12` [Compound 642] the value was above 10 µM.
The same measure, in the same setting: then `CCOP(=O)(OCC)OC[C@@]12C[C@@H](C(=O)Nc3cccc(Br)n3)N(C(=O)Cn3nc(C(C)=O)c4cc(-c5cnc(C)nc5)ccc43)[C@@H]1C2` [Compound 582, ((1R,3S,5S)-2-(2-(3-Acetyl-5-(2-methylpyrimidin-5-yl)-1H-indazol-1-yl)acetyl)-3-(6-bromopyridin-2-ylcarbamoyl)-2-azabicyclo[3.1.0]hexan-5-yl)methyl diethyl phosphate], with below 1 µM; and `CC(=O)c1nn(CC(=O)NCc2ccccc2CC(=O)O)c2ccc(-c3cnc(C)nc3)cc12` [Compound 536, 2-(2-((2-(3-acetyl-5-(2-methylpyrimidin-5-yl)-1H-indazol-1-yl)acetamido)meth-yl)phenyl)acetic acid], with above 10 µM; and `CC(=O)c1nn(CC(=O)N2CCC[C@@H](CNC(=O)c3cccc(Br)n3)C2)c2ccc(-c3cnc(C)nc3)cc12` [Compound 543, (S)—N-((1-(2-(3-Acetyl-5-(2-methylpyrimidin-5-yl)-1H-indazol-1-yl)acetyl)piperidin-3-yl)methyl)-6-bromopicolinamide], with above 10 µM.
Still for that read-out and setting: then `Cc1ncc(-c2ccc3c(c2)c(C(C)O)nn3CC(=O)N2C[C@H](F)C[C@H]2C(=O)O)cn1` (stereo partly drawn) [Compound 631, (2S,4R)-4-Fluoro-1-(2-(3-(1-hydroxyethyl)-5-(2-methylpyrimidin-5-yl)-11-indazol-1-yl)acetyl)pyrrolidine-2-carboxylic Acid], with above 10 µM.
As for `CC(=O)c1nn(CC(=O)N2C[C@H](F)C[C@H]2C(=O)Nc2cccc(-c3ccccc3Cl)c2F)c2ccc(N3CCn4c(nnc4C(F)(F)F)C3)cc12` [Compound 619, (2S,4R)-1-(2-(3-acetyl-5-(3-(trifluoromethyl)-5,6-dihydro-[1,2,4]triazolo[4,3-a]pyrazin-7(8H)-yl)-1H-indazol-1-yl)acetyl)-N-(2′-chloro-2-fluoro-[1,1′-biphenyl]-3-yl)-4-fluoropyrrolidine-2-carboxamide], the concentration for half-maximal inhibition (IC50) is below 1 µM.
The compound `CC[C@@H](NC(=O)Cn1nc(C(C)=O)c2cc(-c3cnc(C)nc3)ccc21)C(=O)Nc1cccc(Br)n1` [Compound 599] had an IC50 above 10 µM.
For `CC(=O)c1nn(CC(=O)N2C[C@H](F)C[C@H]2C(=O)Nc2nc(Br)ccc2C)c2ccc(-c3cnc(N)nc3)cc12` [Compound 553, (2S,4R)-1-(2-(3-acetyl-5-(2-aminopyrimidin-5-yl)-1H-indazol-1-yl)acetyl)-N-(6-bromo-3-methylpyridin-2-yl)-4-fluoropyrrolidine-2-carboxamide], the IC50 was below 1 µM.
Same read-out and setting: then `CC(=O)c1nn(CC(=O)N2C[C@H](F)C[C@H]2C(=O)Nc2cccc(-c3ccc4c(c3Cl)NCCN4)c2F)c2ccc(-c3cnc(C)nc3)cc12` [Compound 560, (2S,4R)-1-(2-(3-Acetyl-5-(2-methylpyrimidin-5-yl)-1H-indazol-1-yl)acetyl)-N-(3-(5-chloro-1,2,3,4-tetrahydroquinoxalin-6-yl)-2-fluorophenyl)-4-fluoropyrrolidine-2-carboxamide], with below 1 µM; and `CC(=O)c1nn(CC(=O)N2C[C@@](F)(CN=[N+]=[N-])C[C@H]2C(=O)Nc2cccc(Br)n2)c2ccc(-c3cnc(C)nc3)cc12` [Compound 547, (2S,4R)-1-(2-(3-Acetyl-5-(2-methylpyrimidin-5-yl)-1H-indazol-1-yl)acetyl)-4-(azidomethyl)-N-(6-bromopyridin-2-yl)-4-fluoropyrrolidine-2-carboxamide], with below 1 µM; and `CC(=O)c1nn(CC(=O)N2C[C@H](F)C[C@H]2CNS(=O)(=O)c2cccc(Cl)c2F)c2ccc(-c3cnc(C)nc3)cc12` [Compound 563, N-(((2S,4R)-1-(2-(3-acetyl-5-(2-methylpyrimidin-5-yl)-1H-indazol-1-yl)acetyl)-4-fluoropyrrolidin-2-yl)methyl)-3-chloro-2-fluorobenzene-sulfonamide], with below 1 µM.
Same read-out and setting: for `Cc1cccc(NC(=O)[C@@H]2CC=CCN2C(=O)Cn2cc(C(N)=O)c3cc(-c4cnc5cc(C)nn5c4)ccc32)n1` [Compound 612, (S)-5-(2-Methylpyrazolo[1,5-a]pyrimidin-6-yl)-1-(2-(2-((6-methylpyridin-2-yl)carbamoyl)-3,6-dihydropyridin-1 (2H)-yl)-2-oxoethyl)-1H-indole-3-carboxamide] the value was above 10 µM.
On the same count and under the same terms, for `Cc1cccc(C[C@@H](O)[C@H]2C[C@@H](F)CN2C(=O)Cn2cc(C(N)=O)c3cc(-c4cnc5cc(C)nn5c4)ccc32)n1` [Compound 611, 1-(2-((2R,4R)-4-Fluoro-2-((R)-1-hydroxy-2-(6-methylpyridin-2-yl)ethyl)pyrrolidin-1-yl)-2-oxoethyl)-5-(2-methylpyrazolo [1,5-a]pyrimidin-6-yl)-1H-indole-3-carboxamide] the value was above 10 µM; for `Cc1cccc(C[C@@H](O)[C@H]2C[C@@H](F)CN2C(=O)Cn2cc(C(N)=O)c3cc(-c4cnc(C)nc4)ccc32)n1` [Compound 561, 1-(2-((2R,4R)-4-Fluoro-2-((R)-1-hydroxy-2-(6-methylpyridin-2-yl)ethyl)pyrrolidin-1-yl)-2-oxoethyl)-5-(2-methylpyrimidin-5-yl)-1H-indole-3-carboxamide], above 10 µM.
For the compound `CC(=O)c1nn(CC(=O)N2C[C@H](F)C[C@H]2CNC(=O)c2cccc(Cl)c2F)c2ccc(-c3cnc(C)nc3)cc12` [Compound 562, N-(((2S,4R)-1-(2-(3-acetyl-5-(2-methylpyrimidin-5-yl)-1H-indazol-1-yl)acetyl)-4-fluoropyrrolidin-2-yl)methyl)-3-chloro-2-fluorobenzamide], the IC50 was above 10 µM.
Turning to `CC(=O)c1nn(CC(=O)N2C[C@H](F)C[C@H]2CC(=O)O)c2ccc(-c3cnc(C)nc3)cc12` [Compound 577, 2-((2R,4R)-1-(2-(3-Acetyl-5-(2-methylpyrimidin-5-yl)-1H-indazol-1-yl)acetyl)-4-fluoropyrrolidin-2-yl)acetic Acid], the half-inhibitory concentration (IC50) is above 10 µM.
